Source: US8288559B2, “Luminogenic compounds and methods to detect cytochrome P450 3A enzymes” (Promega Corporation, priority 2008, dated 2012)

Key:
CYP3A4 [1] = molecular target: T1, CYP3A4 (Homo sapiens, UniProt P08684); test: Two-step luminescent P450 assay with luciferin derivatives, recombinant enzyme panel screen; format: biochemical; design: purchased Discovery Labware (Supersomes™); host or cells: insect cell expression system; conditions: for signal/background (S/B) ratio: CYP3A4 vs minus P450 control, 50 μM substrate, 1 pmole P450, 30 minutes at 37° C. (FIG. 2)
T1 sequence (P08684 whole entry): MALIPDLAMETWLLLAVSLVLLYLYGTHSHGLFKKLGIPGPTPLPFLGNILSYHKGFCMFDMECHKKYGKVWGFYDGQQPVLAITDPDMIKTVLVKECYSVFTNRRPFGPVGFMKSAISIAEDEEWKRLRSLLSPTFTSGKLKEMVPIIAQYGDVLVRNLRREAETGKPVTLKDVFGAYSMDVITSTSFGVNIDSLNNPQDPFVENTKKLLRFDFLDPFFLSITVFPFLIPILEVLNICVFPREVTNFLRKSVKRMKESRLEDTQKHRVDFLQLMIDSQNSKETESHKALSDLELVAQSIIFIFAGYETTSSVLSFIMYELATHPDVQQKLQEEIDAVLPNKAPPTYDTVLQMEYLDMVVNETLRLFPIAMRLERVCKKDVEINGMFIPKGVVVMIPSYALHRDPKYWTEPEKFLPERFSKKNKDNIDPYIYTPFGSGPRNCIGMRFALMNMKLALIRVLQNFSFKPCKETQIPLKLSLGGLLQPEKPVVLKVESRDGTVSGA
Experimental: (§1) For assays using recombinant P450 enzymes, a two-step scheme was followed whereby a luciferin derivative is oxidized by a P450 enzyme in a first step. In the second step, LDR is added to the P450 reaction mixture to stop the P450 activity and initiate a glow-style luciferase reaction whereby the luminescent signal strength is dependent on the amount of luciferin derivative oxidized by a P450 enzyme in the first step.
(§2) Reaction buffers for the P450 enzyme reaction of the first step varied depending on the P450 enzyme used. […] Unless otherwise indicated, the following buffer/enzyme combinations were used: 100 mM KPO4, pH 7.4 for CYP1A1, 1A2, 1B1, 2D6, 2E1, 3A5, 3A7, 2J2, 4F12, 19, and control samples; 50 mM KPO4, pH 7.4 for CYP2B6, 2C8, 2C19, 4F2, 4F3A, 4F3B; 25 mM KPO4, pH 7.4 for CYP2C9; 200 mM KPO4, pH 7.4 for CYP3A4; 100 mM TrisHCl, pH 7.5 for CYP2A6, 2C18, 4A11.
(§3) In FIG. 2 and FIGS. 8-19, luciferin derivatives were screened against a panel of recombinant human cytochrome P450 enzyme and control microsomes (Supersomes™). Concentrated stock solutions of the proluciferin acetal compounds were prepared as follows: 50 mM 3320, 3357, 3364, 3366 and 3391 in acetonitrile; 50 mM 3359, 3365, 3397 and 3403 in dimethyl sulfoxide (DMSO); 50 mM 3377 in H2O; 10 mM 3363 in H2O. Luciferin-PPXE, luciferin-PFBE and luciferin-BE were provided as a 50 mM solution in DMSO, 2 mM solution in 25 mM Tris, pH 8 and a 5 mM solution in 100 mM KPO4, pH 7.4, respectively. Assays were performed in opaque, white, polystyrene, flat-bottom 96-well plates.
(§4) In FIG. 20 using compound 3391, the method used in FIGS. 2 and 8-19 was used with the following changes: 0.1 picomole of each P450 enzyme or an equivalent volume of control membranes was used per reaction; for all reactions, 2 μM compound 3391 was used, 100 mM KPO4, pH 7.4 was used as the P450 reaction buffer, and the reaction was incubated for 10 minutes at 37° C.
(§5) Briefly, in a first step a proluciferin acetal of the present invention is oxidized initially by a P450 enzyme. The oxidized product is then thought to undergo a non-enzymatic conversion to a proluciferin ester. In a second step, the proluciferin ester is detected by adding a luciferase reaction mixture containing an esterase enzyme that converts the proluciferin ester to luciferin. The luciferin reacts with luciferase to produce an amount of light that is proportional to the amount of luciferin, and therefore to the amount of P450 enzyme activity. A sample that contains active P450 enzyme is typically compared to a control that is devoid of P450 activity.

CYP3A4 [2] = molecular target: T1, CYP3A4; conditions: non-acetal CYP3A4 substrates, Cali et al. 2006; cited from earlier work
CYP3A4 versus CYP3A7 = molecular target: T2, CYP3A4 versus CYP3A7 (Homo sapiens, UniProt P24462); test: Two-step luminescent P450 assay, recombinant enzyme panel screen; format: biochemical; conditions: human, recombinant human CYP3A4 and CYP3A7 microsomes (Supersomes), pH 7.4; FIG. 2 conditions: 50 μM compound, 1 pmole P450, 30 minutes; read-out: selectivity for CYP3A4 over CYP3A7
T2 construct: purchased Discovery Labware (Supersomes™); host or cells: insect cell expression system
T2 sequence (P24462 whole entry): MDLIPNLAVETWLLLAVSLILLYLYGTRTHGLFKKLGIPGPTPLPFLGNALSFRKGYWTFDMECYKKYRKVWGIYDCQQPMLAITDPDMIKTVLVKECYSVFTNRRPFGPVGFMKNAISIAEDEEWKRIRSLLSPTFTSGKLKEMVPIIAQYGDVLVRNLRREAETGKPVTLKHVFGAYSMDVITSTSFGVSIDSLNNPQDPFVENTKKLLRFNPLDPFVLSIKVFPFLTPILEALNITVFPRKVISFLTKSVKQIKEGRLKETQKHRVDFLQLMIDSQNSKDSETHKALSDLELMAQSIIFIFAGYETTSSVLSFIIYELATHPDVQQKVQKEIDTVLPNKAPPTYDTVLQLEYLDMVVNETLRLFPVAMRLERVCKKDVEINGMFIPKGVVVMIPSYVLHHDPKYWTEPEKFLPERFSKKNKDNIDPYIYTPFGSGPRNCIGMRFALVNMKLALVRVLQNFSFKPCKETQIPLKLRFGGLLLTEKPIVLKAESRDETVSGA
Experimental: as §1, §2, §3, §4, §5

CYP3A4 versus CYP3A5 = molecular target: T3, CYP3A4 versus CYP3A5 (Homo sapiens, UniProt P20815); test: as above; format: biochemical; conditions: human, recombinant human CYP3A4 and CYP3A5 microsomes (Supersomes), pH 7.4; FIG. 2 conditions: 50 μM compound, 1 pmole P450, 30 minutes; read-out: selectivity for CYP3A4 over CYP3A5
T3 construct: purchased Discovery Labware (Supersomes™); host or cells: insect cell expression system
T3 sequence (P20815 whole entry): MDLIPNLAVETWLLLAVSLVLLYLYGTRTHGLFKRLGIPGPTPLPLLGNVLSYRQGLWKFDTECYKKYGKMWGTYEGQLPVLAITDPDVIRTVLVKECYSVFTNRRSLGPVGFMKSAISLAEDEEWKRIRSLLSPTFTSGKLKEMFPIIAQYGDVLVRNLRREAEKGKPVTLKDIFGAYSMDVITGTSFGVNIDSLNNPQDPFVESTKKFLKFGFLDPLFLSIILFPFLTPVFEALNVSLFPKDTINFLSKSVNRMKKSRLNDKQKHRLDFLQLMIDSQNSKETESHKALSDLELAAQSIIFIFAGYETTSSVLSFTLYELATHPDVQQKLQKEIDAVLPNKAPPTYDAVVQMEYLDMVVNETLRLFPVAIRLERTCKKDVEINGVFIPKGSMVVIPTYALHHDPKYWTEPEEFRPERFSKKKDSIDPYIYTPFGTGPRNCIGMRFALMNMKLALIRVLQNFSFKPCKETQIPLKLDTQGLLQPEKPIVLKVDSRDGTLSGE
Experimental: as §1, §2, §3, §4, §5

CYP3A7 = molecular target: T4, CYP3A7 (Homo sapiens, UniProt P24462); test: as above; format: biochemical; conditions: FIG. 20 conditions: 2 μM compound, 0.1 picomole P450, 100 mM KPO4 pH 7.4, 10 minutes at 37° C.
T4 construct: purchased Discovery Labware (Supersomes™); host or cells: insect cell expression system
T4 sequence (P24462 whole entry): as the sequence (P24462 whole entry) above
Experimental: as §1, §2, §3, §4, §5

CYP3A5 = molecular target: T5, CYP3A5 (Homo sapiens, UniProt P20815); test: as above; format: biochemical; conditions: FIG. 20 conditions: 2 μM compound, 0.1 picomole P450, 100 mM KPO4 pH 7.4, 10 minutes at 37° C.
T5 construct: purchased Discovery Labware (Supersomes™); host or cells: insect cell expression system
T5 sequence (P20815 whole entry): as the sequence (P20815 whole entry) above
Experimental: as §1, §2, §3, §4, §5

CYP3A4 [3] = molecular target: T1, CYP3A4; test: Concentration dependence of the CYP3A4 reaction with compound 3391; format: biochemical; design: purchased Discovery Labware (Supersomes™); host or cells: insect cell expression system
Experimental: The reactions were performed as described for FIGS. 3-6 except no inhibitors were present in the reactions, and the concentration of compound 3391 varied as indicated in FIG. 7. Signals are expressed as net relative luminescent units (RLU) calculated by subtracting the background RLU values of control reaction mixtures that lack CYP3A4 enzyme from the RLU values of the CYP3A4 reactions. The curve fit was performed with the program GraphPad Prism™.
FIG. 7 illustrates the concentration dependence of the CYP3A4 reaction with compound 3391. […] The data fit well to a substrate inhibition model (R^2=0.99) described by the equation Y=(Vmax·X)/(Km+X+(X·X/Ki)), where X=substrate concentration, Y=activity in relative light units (RLU), Km=[…] and Ki=the substrate inhibition constant.

[4] = system: panel of 21 recombinant human cytochrome P450 enzymes; test: Two-step luminescent P450 assay, recombinant enzyme panel screen; format: biochemical
Experimental: as §1, §2
In FIG. 2 and FIGS. 8-19, luciferin derivatives were screened against a panel of recombinant human cytochrome P450 enzyme and control microsomes (Supersomes™). […]
Briefly, in a first step a proluciferin acetal of the present invention is oxidized initially by a P450 enzyme. […] In a second step, the proluciferin ester is detected by adding a luciferase reaction mixture containing an esterase enzyme that converts the proluciferin ester to luciferin. […]

CYP3A4 [5] = molecular target: T1, CYP3A4
Experimental: In FIGS. 3-6, CYP3A4 enzyme was co-expressed with cytochrome b5 and cytochrome P450 reductase in membrane fractions (Supersomes™). […] The reactions were initiated by addition of the NADPH regenerating system and incubated for 10 minutes at 37° C. After incubation, an equal volume (50 μl) of LDR was added and luminescence read 20 minutes later at room temperature on a Veritas™ luminometer. […] IC50 is the concentration of inhibitor that causes 50% inhibition of the reaction. Curve fits and IC50 calculations were performed with the program GraphPad Prism™.

CYP3A4 [6] = molecular target: T1, CYP3A4; conditions: cited from earlier work

O=C(O)[C@H]1CSC(c2nc3ccc(OC(F)(F)c4c(F)c(F)c(F)c(F)c4F)cc3s2)=N1 [luciferin-PFBE, (S)-2-(6-(perfluorobenzyloxy)-benzo[d]thiazol-2-yl)-4,5-dihydrothiazole-4-carboxylic acid, reference compound]
signal/background (S/B) ratio (CYP3A4 [1]): 92 | Km (CYP3A4 [2]): 50 µM

O=C(O)[C@H]1CSC(c2nc3ccc(OCc4cccc(CN5CCN(c6ccccc6)CC5)c4)cc3s2)=N1 [luciferin-PPXE, (S)-2-(6-(3-((4-phenylpiperazin-1-yl)methyl)benzyloxy)benzo[d]thiazol-2-yl)-4,5-dihydrothiazole-4-carboxylic acid, reference compound]
signal/background (S/B) ratio (CYP3A4 [1]): 56 | Km (CYP3A4 [2]): 25 µM

O=C(O)[C@H]1CSC(c2nc3ccc(OCc4ccccc4)cc3s2)=N1 [luciferin-BE, (S)-2-(6-(benzyloxy)benzo[d]thiazol-2-yl)-4,5-dihydrothiazole-4-carboxylic acid, reference compound]
signal/background (S/B) ratio (CYP3A4 [1]): 55 | Km (CYP3A4 [2]): 50 µM

CC(C)OC(OC(C)C)C1CSC(c2nc3ccc(O)cc3s2)=N1 (stereo not drawn) [compound 3391]
selectivity ratio at 30 min, 50 μM (CYP3A4 versus CYP3A7): 8.5 | selectivity ratio at 30 min, 50 μM (CYP3A4 versus CYP3A5): 1.4 | preference for CYP3A4 over CYP3A7 (CYP3A7): 48.5 fold | preference for CYP3A4 over CYP3A5 (CYP3A5): 8.0 fold | fraction of compound oxidized during the incubation (CYP3A4 [1]; 0.1 picomoles of CYP3A4, 10 minute incubation, 2 μM): less than 10% | signal/background (S/B) ratio (CYP3A4 [1]): 1699 | time over which product accumulation with CYP3A4 is linear (CYP3A4 [1]; FIG. 20 conditions): at least 10 minutes | substrate concentration at maximal rate (CYP3A4 [3]; FIG. 7): 12.5 µM | Ki (CYP3A4 [3]; substrate inhibition model fit, read-out: Ki (substrate inhibition constant)): 171 µM | selectivity/preference for the CYP3A subfamily (CYP3A4, CYP3A5, CYP3A7) ([4]; 50 μM, one picomole enzyme, 30 minutes at 37° C.): excellent selectivity | activities with the other P450 enzymes screened ([4]; FIG. 20 conditions: 2 μM compound, 0.1 picomole P450, 10 minutes): negligible

Cc1ncc2n1-c1ccc(Cl)cc1C(c1ccccc1F)=NC2 [midazolam]
effect on the CYP3A4/3391 reaction (CYP3A4 [5]): inhibited | effect on CYP3A4 assay using luciferin-BE (CYP3A4 [6]): inhibited | effect on CYP3A4 assay using luciferin-PFBE (CYP3A4 [6]): inhibited | effect on CYP3A4 assay using luciferin-PPXE (CYP3A4 [6]): inhibited
